Assay results taken from PubChem BioAssay (NCI).
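Step 1: Grow cells in 96-well plates. Step 2: Expose to compound for 48 hours at 5 concentrations. Step 3: Interpolate endpoints linearly; if unreached, use highest concentration. TGI is the concentration that stops growth completely.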

What was measured:
Assay in all cases: NCI tumour cell line growth inhibition, 48 h
NCI-H460 lung = tested on: NCI-H460 lung
TK-10 renal = tested on: TK-10 renal
M14 melanoma = tested on: M14 melanoma
A549 NSCLC = tested on: A549 NSCLC
EKVX NSCLC = tested on: EKVX NSCLC
COLO 205 colon = tested on: COLO 205 colon
SW-620 colon = tested on: SW-620 colon
LOX IMVI melanoma = tested on: LOX IMVI melanoma
HCT-15 colon = tested on: HCT-15 colon
MCF7 breast = tested on: MCF7 breast
HCC-2998 colon = tested on: HCC-2998 colon
OVCAR-3 ovarian = tested on: OVCAR-3 ovarian
UO-31 renal = tested on: UO-31 renal
SK-OV-3 ovarian = tested on: SK-OV-3 ovarian
IGROV1 ovarian = tested on: IGROV1 ovarian
SF-539 CNS = tested on: SF-539 CNS
KM12 colon = tested on: KM12 colon
NCI-H226 lung = tested on: NCI-H226 lung

Structure (SMILES) | TGI (NCI-H460 lung) | TGI (TK-10 renal) | TGI (M14 melanoma) | TGI (A549 NSCLC) | TGI (EKVX NSCLC) | TGI (COLO 205 colon) | TGI (SW-620 colon) | TGI (LOX IMVI melanoma) | TGI (HCT-15 colon) | TGI (MCF7 breast) | TGI (HCC-2998 colon) | TGI (OVCAR-3 ovarian) | TGI (UO-31 renal) | TGI (SK-OV-3 ovarian) | TGI (IGROV1 ovarian) | TGI (SF-539 CNS) | TGI (KM12 colon) | TGI (NCI-H226 lung)
COCC12CCC(OC)C34C5CC6(O)C(OC)C=C(C5C6OC(=O)c5ccccc5)C(C(OC)C13)C4N(C)C2 (stereo not given) | > 100 µM | > 100 µM | > 100 µM | > 100 µM | > 100 µM | > 100 µM | > 100 µM | > 100 µM | > 100 µM | > 100 µM | > 100 µM | > 100 µM | > 100 µM | > 100 µM | > 100 µM | > 100 µM | > 100 µM | –
CO[C@H]1O[C@@H]2OC3(C)CCC4[C@H](C)CCC([C@H]1C)[C@]42OO3 (stereo not given in full) | > 100 µM | – | > 100 µM | > 100 µM | > 100 µM | > 100 µM | > 100 µM | > 100 µM | > 100 µM | – | > 100 µM | > 100 µM | > 100 µM | > 100 µM | > 100 µM | > 100 µM | – | > 100 µM
CC1=NC=C(O)c2ccccc2O1 | > 100 µM | > 100 µM | > 100 µM | > 100 µM | > 100 µM | > 100 µM | > 100 µM | > 100 µM | > 100 µM | – | > 100 µM | > 100 µM | > 100 µM | > 100 µM | > 100 µM | > 100 µM | > 100 µM | –
O=P(CCOc1ccccc1OCCP(=O)(c1ccccc1)c1ccc2c(c1)OCCOCCOCCOCCO2)(c1ccccc1)c1ccc2c(c1)OCCOCCOCCOCCO2 (stereo not given) | > 100 µM | > 100 µM | > 100 µM | > 100 µM | > 100 µM | > 100 µM | > 100 µM | > 100 µM | > 100 µM | – | > 100 µM | > 100 µM | > 100 µM | > 100 µM | > 100 µM | > 100 µM | – | > 100 µM
CCCCCC#COC1CC(C)CC[C@@H]1C(C)C (stereo not given in full) | 55.4 µM | > 100 µM | > 100 µM | > 100 µM | > 100 µM | > 100 µM | 34.1 µM | 29.9 µM | > 100 µM | – | > 100 µM | > 100 µM | > 100 µM | > 100 µM | 79.5 µM | > 100 µM | > 100 µM | > 100 µM
Cc1[nH]c2nc3c(ncn3COCCO)c(=O)n2c1C(c1ccccc1)(c1ccccc1)c1ccccc1 | 30.9 µM | 30.8 µM | 33.3 µM | 40.5 µM | 41.8 µM | 31 µM | > 56.4 µM | 27.8 µM | > 100 µM | 23.1 µM | 26.4 µM | 15.4 µM | > 76.1 µM | 32.8 µM | 28.4 µM | 19.2 µM | 28.5 µM | –
CC1CCC2CC1NC(=O)CCOCCC(=O)NC2(C)C (stereo not given) | > 100 µM | > 100 µM | > 100 µM | > 100 µM | > 100 µM | > 100 µM | > 100 µM | > 100 µM | > 100 µM | > 100 µM | > 100 µM | > 100 µM | > 100 µM | > 100 µM | > 100 µM | > 100 µM | > 100 µM | –
COC1=CC(=O)c2c(cc3c(c2O)-c2c(OC)cc4cc5c(c(O)c4c2OC(=O)CC(C)(O)C3)C(=O)CC(C)(O)C5)C1=O (stereo not given) | 5.24 µM | 14.2 µM | 2.66 µM | 10.7 µM | 5.58 µM | 3.17 µM | 6.3 µM | 2.94 µM | 4.36 µM | – | 3.21 µM | 2.15 µM | 3.71 µM | 7.47 µM | 3.97 µM | 3.67 µM | 8.98 µM | 4.08 µM
O=C1Nc2ccccc2/C1=C\c1c(-c2ccccc2)nc2n1CCS2 | 41.9 µM | 34.3 µM | 87.9 µM | > 100 µM | 52 µM | 81.3 µM | > 100 µM | 38.6 µM | 52.3 µM | 39.3 µM | 34.8 µM | 41.8 µM | 80.6 µM | 67.1 µM | > 100 µM | 39.1 µM | 37.5 µM | –
COc1ccc2[nH]c3c4c(cc(-c5ccccc5)c3c2c1)C(=O)N(c1ccccc1)C4=O | > 100 µM | > 100 µM | > 95.4 µM | > 100 µM | > 100 µM | > 100 µM | > 100 µM | > 92 µM | > 100 µM | – | > 100 µM | 55.2 µM | > 72 µM | > 93.1 µM | > 100 µM | 16.5 µM | > 100 µM | > 100 µM
CN(C)CC1CCCCCCCCCCCCC(CN(C)C)C1=O (stereo not given) | 27.6 µM | 27.9 µM | 25.9 µM | 29.6 µM | 37.3 µM | 27.6 µM | 20.6 µM | 21.3 µM | 34.8 µM | – | 22.2 µM | 30.7 µM | 26.8 µM | 32.3 µM | 33.1 µM | 28.7 µM | 24 µM | 23.9 µM
CCOC(=O)C1(C#N)C(C#N)(C#N)C1(C#N)C#N | > 100 µM | > 100 µM | > 100 µM | > 100 µM | > 100 µM | > 100 µM | > 100 µM | > 100 µM | > 100 µM | > 100 µM | > 100 µM | – | > 100 µM | > 100 µM | > 100 µM | – | > 100 µM | > 100 µM
Oc1c(Cl)c(Cl)c(O)c(CCNc2nccs2)c1Cl | 41.1 µM | 33 µM | 36 µM | 49.8 µM | 41.1 µM | 57.9 µM | 7.72 µM | – | 31 µM | 10.2 µM | 30.3 µM | 33.3 µM | 32.9 µM | 30.3 µM | 17.9 µM | 4.14 µM | 35.8 µM | –
COc1ccccc1NC(=O)C(=O)Cc1cnc2ccccc2n1 | > 100 µM | – | > 100 µM | > 100 µM | – | > 100 µM | > 100 µM | > 100 µM | > 100 µM | > 100 µM | > 100 µM | > 100 µM | > 100 µM | > 100 µM | – | > 100 µM | > 100 µM | > 100 µM
